Laboratory results published in US20240025849A1 (MAX DELBRÜCK-CENTRUM FÜR MOLEKULARE MEDIZIN IN DER …, priority 2020, published 2024).
“Also recorded” adds a separate entry of the source. Where two headings read alike, the source gives them in different places.

What was measured:
[1] = tested on: primary cultured neonatal microglia; assay: PolyIC induced NO release, Griess assay; format: cell-based, mouse; settings: for NO concentration, % of stimulated control: 100 μg/ml PolyIC 24 hours
Experimental: (§1) Primary cultured neonatal microglia. For preparation of cultured neonatal microglia, P0-P3 mice were used. 10 brains were extracted, meninges and cerebellum were removed and put on ice with Hank's balanced salt solution (HBSS). The dissected brains were washed 3 times before adding 400 μL trypsin (0.1 mg/L) and DNAse (5 μg/L) in phosphate buffered saline (PBS). After 2 min of incubation with this solution, the reaction was blocked by adding plain medium. After removal of the medium, 1 mg DNAse was added and the cells were mechanically dissociated, with a Pasteur pipette followed by a glass pipette. The cells were centrifuged for 10 min at 129 g at 4° C. The supernatant was discarded. The pellet was resuspended in plain medium and plated (2.5 brains/flask) in Poly-L-Lysine coated flasks. The cells were washed after 2 days with PBS and incubated for another 7 days in plain medium. Afterwards the medium was replaced by plain medium with 33% L929 conditioned medium. After 2 days, cells were harvested by shaking them for 30 min at 150 rpm. The supernatant was centrifuged for 10 min at 129 g at 4° C. The cells were plated into a 96 well plate (100 000 cells/well, 200 μL medium per well). This procedure could be repeated 2 times with a 2 day interval.
(§2) Griess assay. Cells were seeded according to the protocols described above, after compounds and stimuli were added, 100 μl of supernatant was transferred into a new 96 well plate and 100 μl freshly mixed Griess reagent were added. Griess reagent was composed of reagent A (100 mg Naphthylethylene in 50 ml aqua dest.) and reagent B (1 g Sulfanilamide, […] H3PO4 (85%) in 44 mL aqua dest.) mixed 1:1. The solution was carefully mixed and the absorbance was determined in a microplate reader at a wavelength of 550 nm.
In order to test whether C1 decreases NO release induced by other stimulation agents besides LPS which is mimicking a bacterial infection, the inventors used IFNγ to mimic a Th1 cell response (Yau et al., 2016) and PolyIC to mimic an anti-viral response (Jiang and Pisetsky, 2006). Given that our aim is to determine the compound's effect on already stimulated microglia (LPS, IFNγ, and PolyIC), each individual experiment is normalized to its stimulated control.

iNOS mRNA = assay: Quantitative PCR of iNOS mRNA in microglia; format: cell-based, mouse; settings: 2.5 μM C1
Experimental: Quantitative PCR. The same stimulation protocol as for the Flow cytometry-based phagocytosis assay was applied. Cells were seeded overnight, treated with 2.5 μM C1 in DMSO, 125×10^−5 v/v DMSO respectively, or plain medium only for 1 hour, followed by an additional stimulation with 1 μg/ml LPS for 24 hours. Total RNA was isolated using the RNeasy Plus Mini Kit (Qiagen, Hilden, Germany). On-column DNase 1 (Qiagen) digestion was performed and total RNA was eluted in RNase-free water. RNA yield was measured using a Nanodrop 1000 (Thermo Fisher Scientific) spectrophotometer and quality was assessed using an Agilent 2100 Bioanalyzer (Agilent, Santa Clara, USA). Samples were stored at −80° C. until further use. First-strand cDNA synthesis was done with the SuperScript II reverse transcriptase (Thermo Fisher Scientific) using oligo-dT primers12-18 (Invitrogen) according to the manufacturer's instructions. Quantitative real-time PCR (qRT PCR) reactions were performed in a 7500 Fast Real-Time thermocycler (Thermo Fisher Scientific) using the SYBR Select Master Mix (Thermo Fisher Scientific) according to the manufacturer's instructions. cDNA input ranged between 1 and 5 ng/μl of total RNA transcribed into cDNA. The expression results were normalized to the expression of PActin of the same sample.

[2] = tested on: primary cultured neonatal microglia; assay: LPS induced NO release, Griess assay, laboratory scaled setup; format: cell-based, mouse; settings: for IC50: 96 well plate, 1 h C1, then 1 μg/ml LPS 48 h, 2 nM to 20 μM, read-out: IC50, LPS induced NO release
Experimental: as §1, §2
Dissolved sodium nitrite in plain medium served as a standard. Total amount of nitrite was calculated by a linear regression of the standard curve.
The activity of the compounds listed in column 1 of Table 1 as inhibitors of NO production was compared in murine primary cultured neonatal microglia as described above.

[3] = tested on: bone marrow derived macrophages; assay: AlamarBlue assay (metabolic activity) in macrophages; format: cell-based, mouse; settings: for cell (metabolic) activity, % of positive control: 1 μg/mL LPS 48 hours
Experimental: Primary cultured macrophages. Bone marrow macrophages were isolated from C57BL/6 adult mice ([…]-56) as previously described (Marim et al., 2010). In summary, mice were killed by cervical dislocation and the femurs were removed by cutting through the tibia near the pelvic bone and below the knee. Any muscle connected to the bone was carefully removed. Ice cold sterile PBS was slowly flushed through the bone and the contents were collected in a sterile 15 mL polypropylene tube on ice. After centrifugation for 10 min at 200 g at 4° C., red blood cells were lysed by adding 3-10 mL ammonium chloride solution. After a 3-5 min recovery period, the suspension was centrifuged for 10 min at 200 g at 4° C. and the supernatant was removed. Cells were plated in a 10 cm dish with plain medium containing 10 ng/mL M-CSF and cultured for 7 days to allow differentiation. 50 000 cells were plated with 200 μL medium per well in a 96 well plate. AlamarBlue assay. Cells were seeded according to the protocols described above, after compounds and stimuli were added, the cells were washed once with HBSS (37° C.) and 100 μl of a 1:10 AlamarBlue (Thermo Fisher Scientific) dilution in plain medium was added. The conversion of resazurin to resorufin was measured by absorbance (absorbance wavelength of 570 nm and a reference wavelength of 600 nm) after 3 hours.

[4] = tested on: primary cultured neonatal microglia; assay: Propidium iodide based proliferation and cell death assay in microglia; settings: 2.5 μM C1, 48 hours, unstimulated
Experimental: as §1, with “Afterwards the medium was replaced by plain medium with 33% L929 conditioned medium. After 2 days, cells were harvested by shaking them for 30 min at 150 rpm. The supernatant was centrifuged for 10 min at 129 g at 4° C. The cells were plated into a 96 well plate (100 000 cells/well, 200 μL medium per well). This procedure could be repeated 2 times with a 2 day interval.” left out
Propidium iodide based proliferation and cell death assay. […] The intensity of the propidium iodide signal of the dead cells was measured using a microplate reader. Afterwards, all cells were killed with a 10 min incubation of 10% DMSO and the propidium iodide signal of all cells was measured. […] The percentage of dead cells was calculated by dividing the dead-cell-signal by the all-cell-signal. Proliferation was calculated as a relative value to the plain medium control.

SMILES: COc1ccc(NC(=O)C(NC(=O)C2CCCN2C(=O)OCc2ccccc2)c2ccc(OC)cc2)cc1 (stereo not shown) [C1]
- NO concentration, % of stimulated control ([1]; 25 nM C1): 66%
- NO concentration, % of stimulated control ([1]; 250 nM C1): 29%
- NO concentration, % of stimulated control ([1]; 2.5 μM C1): 25%
- NO release upon stimulation with PolyIC ([1]; pre-treatment with C1): dose dependent decrease
- iNOS mRNA level, basal conditions (iNOS mRNA): no significant effect; also recorded: did not change
- iNOS mRNA level after LPS stimulation (iNOS mRNA; 1 μg/ml LPS 24 hours): did not change mRNA significantly
- IC50 [2]: 250 nM
- NO release in unstimulated microglia ([2]; C1 alone 0.025, 0.25, 2.5 μM, 48 hours, no LPS): did not show any significant difference; also recorded: did neither change the NO release
- IC50 ([2]; Mus musculus, Microglia): 252 nM
- NO concentration in supernatant vs plain medium / DMSO ([2]; post-treatment with 2.5 μM C1 after 24 hours LPS, from 8 hours (plain medium), 12 hours (DMSO)): significantly reduced; also recorded: significant reduction
- calculated plateau of NO concentration in supernatant ([2]; post-treatment: 24 hours LPS, medium change, then 2.5 μM C1 up to 60 hours): 7 µM
- cell (metabolic) activity, % of positive control ([3]; 0.025 μM C1): 78.47±31.61%
- metabolic activity of PolyIC stimulated macrophages ([3]; 0.025 μM C1, 100 μg/mL PolyIC 24 hours): reduction of metabolic activity; also recorded: deceased significantly
- cell (metabolic) activity, % of positive control ([3]; 0.25 μM C1): 69.31±36.50%
- metabolic activity of IFNγ stimulated macrophages ([3]; 0.25 μM and 2.5 μM C1, 100 ng/mL IFNγ 48 hours): significant decrease in metabolic activity; also recorded: decreased the metabolic of IFNγ (100 ng/ml) significantly compared to plain medium
- cell (metabolic) activity, % of positive control ([3]; 2.5 μM C1): 66.48±31.17%
- metabolic activity of macrophages stimulated with LPS ([3]; all tested concentrations of C1): decreased the metabolic activity
- metabolic activity of PolyIC stimulated macrophages ([3]; higher concentrations of C1 (0.25, 2.5 μM)): did not show a significant difference
- percentage of dead cells in microglia [4]: 8.49%
